Data published in patent publication US10865176B2, “Small molecule modulators of microRNA-34a” (The Chinese University of Hong Kong, priority 2012, dated 2020).
Marks after values point to notes of the source that are not given here.

Key:
miR-34a [1] = assay: qRT-PCR of primary and mature miR-34a in HCC cells; format: cell-based, human; settings: HCC cells (HepG2, FIG. 4B)
Protocol: (§1) Total RNA from cell cultures and HCC xenograft tumors were extracted using Trizol (Invitrogen) according to manufacturer's protocols. Total RNAs were dissolved into nuclease-free ddH2O. For protein extraction, cells and HCC xenograft tumors were lysed in 1×RIPA buffer with 1 mM PMSF and 1× complete protease inhibitor cocktail (Roche, Indianapolis, Ind.). Both RNA and protein were stored at −80° C.
(§2) Total RNA was reversely transcribed into cDNAs using High Capacity cDNA Reverse Transcription Kit (Applied Biosystems, Foster city, CA, USA) and nude RT kit (Invitrogen) individually. qRT-PCR was performed using SYBR Green PCR master mix (TaKaRa, Dalian, China). GAPDH was used as an endogenous control. For measuring miR-34a expression level, qPCR was performed by using SYBR Green PCR master mixture (Invitrogen) and U6 was used as the internal control. All samples were normalized to internal controls and fold changes were calculated by relative quantification (2^−ΔΔct).

miR-34a [2] = assay: miR-34a reporter luciferase assay in Huh7 cells; format: cell-based, human
Protocol: The pMIR-REPORT™ luciferase plasmid (1 μg; Ambion) was sequentially double digested with Sac I and Hind III (10 units each, 50 μL reaction; NEB) and was gel purified. Double stranded insert DNA encoding the miR-34a binding site was synthesized through standard oligonucleotide synthesis methods. The sequences used were Forward: 5′z […]-3′ (SEQ ID NO:1) and Reverse: 5′: […]-3′ (SEQ ID NO:2). The insert was hybridized (heated to 95° C., and cooled to 4° C. over 30 min, then held at 4° C. for 60 min) and ligated with T4 ligase (200 units, 10 μL reaction, 1:10 vector/insert ratio; NEB) into the digested pMIR-REPORT™ luciferase vector. Positive colonies were selected by PCR colony screens, and the construction of the pMIR-REPORT™-miR-34a vector was confirmed by double enzyme digestion with NheI, MluI and Nhe I, Hind III (NEB). The luciferase reporter vector containing the miR-34a promoter was kindly provided by Prof. Mendell J T from Johns Hopkins University (21).
Huh7 cells were seeded into 96-well plates 12 h prior to transfection. MiR-34a reporter and the control vector were respectively co-transfected with Renilla luciferase pRL-SV40 into Huh7 cells. All transfections were performed in triplicate. The cells were incubated at 37° C. for 4 h followed by the replacement of transfection media with standard DMEM growth media with 10 μM of the natural products library (NPL) compounds (Tim Tec; 0.1% DMSO final concentration). This library contains 640 compounds including natural products and their derivatives. After 48 h of incubation, the media was removed and cells were lysed and the luciferase signals were measured by luciferase assay as described below.
MiR-34a reporter, the luciferase reporter vector containing miR-34a promoter and the control vectors were transfected into HCC cells 12 h before compound treatment. The Renilla luciferase vector pRL-SV40 was co-transfected as an internal control. HCC cells were then treated with compound for 48-72 h. The luciferase activity was measured by Dual Luciferase Reporter Assay (Promega) with a Wallac VICTOR^3V luminometer. The ratio of firefly luciferase to Renilla expression was calculated for each of the triplicates.

HepG2 xenografted tumor = assay: HepG2 xenografted nude mice model, tumor growth; format: in vivo; settings: 50 mg/kg, gavage once every two days
Protocol: (§3) Tumor volume was calculated as [(Length×Width×Height)[…]]. Treatment was continued for 24 d. Finally, all mice were sacrificed and tumors were excised. Tumor weight was recorded.

miR-34a [3] = assay: qRT-PCR of pri-miR-34a and miR-34a in xenografted tumors; format: in vivo, nude mice; settings: excised tumors after 24 d gavage
Protocol: as §1, §2, §3

Cyclin D1 and Bcl-2 = assay: qRT-PCR of Cyclin D1 and Bcl-2 in xenografted tumors; format: in vivo, nude mice; settings: excised tumors after 24 d gavage
Protocol: as §1, §2, §3

[4] = HepG2 xenograft model, survival, body weight and side effects
Protocol: 5×10^6 HepG2 cells were suspended in 100 μl serum-free medium and subcutaneously (s.c.) inoculated into the dorsal flanks of nude mice. When tumors reached 5-10 mm in diameter, mice were randomly divided into 4 groups (n=5). […] Vehicle alone and Sorafenib were used as the negative and positive control respectively. Tumor volumes and body weight were measured once every two days. Tumor volume was calculated as [(Length×Width×Height)±2]. Treatment was continued for 24 d. Finally, all mice were sacrificed and tumors were excised. Tumor weight was recorded.

Which “miR-34a expression after chemotherapeutic drugs” value (shortened to “miR-34a expression”) (miR-34a [1]) does the source give for `O=c1[nH]cc(F)c(=O)[nH]1` [5-Fluorouracil, reference compound] here?
The value was “no effect”.

Which “function as miR-34a activator, re-assayed in triplicate with miR-34a reporter system” value (miR-34a [2]) does the source give for `COc1ccc(-c2cc(=O)c3c(O)cc(O)cc3o2)cc1` [Acacetin, 5,7-dihydroxy-4′-methoxyflavone] here?
Its value is “functions as the miR-34a activators are confirmed”.

For `N.N.[Cl][Pt][Cl]` [Cisplatin, reference compound], which “miR-34a expression” value (miR-34a [1]) is on record?
Its value is “no effect”.

For `COc1cccc2c1C(=O)c1c(O)c3c(c(O)c1C2=O)C[C@@](O)(C(=O)CO)C[C@@H]3O[C@H]1C[C@H](N)[C@H](O)[C@H](C)O1` [Doxorubicin, reference compound], which “miR-34a expression” value (miR-34a [1]) is on record?
The value was “no effect”.

Which “miR-34a expression” value (miR-34a [1]) does the source give for `CNC(=O)c1cc(Oc2ccc(NC(=O)Nc3ccc(Cl)c(C(F)(F)F)c3)cc2)ccn1` [Sorafenib, reference compound] here?
Its value is “no effect”.

What about the “Tumor growth inhibition (%)” value (HepG2 xenografted tumor; 24 d) of the same molecule?
The value was 84.22%.

And the “Tumor weight (g)” value (HepG2 xenografted tumor; day 24, mean (95% CI))?
Its value is 0.186 (95% CI = 0.14 − 0.23)** g.

What about the “pri-miR-34a and miR-34a levels in xenografted tumors” value (miR-34a [3]) of the same molecule?
Its value is “no changes”.

What about the “Cyclin D1 and Bcl-2 expression in xenografted tumors” value (Cyclin D1 and Bcl-2) of the same molecule?
The value was “no changes”.

What about the “Body weight (g) initial” value ([4]; 50 mg/kg group, initial, mean (95% CI)) of the same molecule?
The value was 20.00(95% CI = 18.76 − 21.24)/ g.

What about the “Body weight (g) end” value ([4]; 50 mg/kg, end of 24 d treatment, mean (95% CI)) of the same molecule?
The value was 24.00(95% CI = 21.22 − 26.78) g.

What about the “Mice survival (n) initial/end” value ([4]; 50 mg/kg, gavage once every two days, 24 d) of the same molecule?
Its value is 5/5.
